In patent US20030190671A1, “Use of metabolic phenotyping in individualized treatment with amonafide” (McGill University, priority 2001, published 2003):
Where two headings read alike, the source gives them in different places.

Experiments:
[1] = cited from earlier work
[2] = Stability of reconstituted amonafide solution; format: physicochemical
Method: Intact vials should be stored under refrigeration (2-8° C.). […] However, the reconstituted solution contains no antibacterial preservatives and should be used immediately. It is advised that the reconstituted product be discarded 8 hours after initial entry.
Add the appropriate dose of amonafide to a bag of 100 mL of normal saline prior to administration. Amonafide is very unstable in dextrose-containing solutions and these should not be used for reconstitution or for administration.

[3] = test system: L1210 leukemia cells lines; conditions: cited from earlier work
[4] = test system: p388 leukemia cells lines; conditions: cited from earlier work
[5] = test system: B16 melanoma; conditions: cited from earlier work
[6] = test system: M5076 sarcoma cell line; conditions: cited from earlier work
[7] = mice, dogs, and rats; cited from earlier work
[8] = dogs; single-bolus and daily for 5 days schedules, highest doses administered; cited from earlier work
[9] = cited from earlier work; remark: listed apart in the source
[10] = human; cited from earlier work
[11] = test system: NAT2; conditions: cancer individuals phenotyped with caffeine; cited from earlier work
[12] = molecular target: T1, CYP1A2 (Homo sapiens, UniProt P05177); conditions: in vitro; cited from earlier work
T1 sequence (P05177 1-516): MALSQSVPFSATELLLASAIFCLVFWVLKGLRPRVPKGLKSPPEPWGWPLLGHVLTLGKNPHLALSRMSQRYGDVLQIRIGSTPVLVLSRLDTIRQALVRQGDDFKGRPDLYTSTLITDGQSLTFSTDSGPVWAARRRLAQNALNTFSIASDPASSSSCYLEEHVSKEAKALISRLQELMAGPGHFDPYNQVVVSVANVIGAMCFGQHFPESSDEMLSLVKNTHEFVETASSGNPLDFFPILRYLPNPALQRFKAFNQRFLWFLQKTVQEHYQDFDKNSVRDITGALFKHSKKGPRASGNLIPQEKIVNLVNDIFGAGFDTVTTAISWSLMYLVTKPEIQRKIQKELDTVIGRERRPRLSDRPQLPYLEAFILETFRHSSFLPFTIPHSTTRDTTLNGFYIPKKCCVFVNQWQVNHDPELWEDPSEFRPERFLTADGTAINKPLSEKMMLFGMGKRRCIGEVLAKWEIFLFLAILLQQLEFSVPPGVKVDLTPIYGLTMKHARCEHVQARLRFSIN

[13] = test system: non-small cell lung cancer, prostate cancer and breast cancer; conditions: cited from earlier work
[14] = Felder et al.; cited from earlier work
[15] = test system: CYP2D6; conditions: cited from earlier work
[16] = test system: AAMU-Ab; experiment: Competitive antigen ELISA, cross-reactivity of AAMU-Ab; format: binding, rabbit; conditions: competitive antigen ELISA; 0 = absence of inhibition or inhibition no higher than 40% at the highest concentration tested (5×10^−3 M)
Method: (§1) Competitive Antigen ELISA
(§2) Buffers and water without additives are filtered through millipore filters and kept for 1 week. BSA, antibodies, Tween™ 20 and horse radish peroxidase conjugates are added to these buffers and water just prior to use. Urine samples are usually collected 4 hours after drinking a cup of coffee (instant or brewed with approximately 100 mg of caffeine per cup) and stored at −80° C. The urine samples are diluted 10 times with sodium phosphate buffer (620 mosm, pH 7.50) and are subsequently diluted with water to give concentrations of AAMU and 1X no higher than 3×10^−6 M in the ELISA. All the pipettings are done with an eight-channel pipette, except those of the antibody and sample solutions. Starting with the last well, 100 μL of a carbonate buffer (100 mM, pH 9.6) containing 2.5 μg mL-1 antibodies are added to each well. After 90 min. at room temperature, the wells are washed three times with 100 mL of TPB: isotonic sodium phosphate buffer (310 mosm, pH 7.50) containing 0.05% Tween™ 20.
(§3) After the initial wash, unoccupied sites are blocked by incubation for 90 min. at room temperature with 100 μL TBP containing 3% BSA. The wells are washed four times with 100 […] TPB. […] The microplate is gently shaken with an orbital shaker at room temperature for 3-4 hours. The wells are washed three times with 100 μL TPB containing 1% BSA and three times with water containing 0.05% Tween™ 20. To the washed plate is added 150 μL of a substrate buffer composed of citric acid (25 mM) and sodium phosphate dibasic buffer (50 mM, pH 5.0) containing 0.06% hydrogen peroxide and 0.04% o-phenylenediamine hydrochloride.
as §2, with “were” for “are”, “They were” for “The urine samples are”, “mL^−1” for “mL-1”, “was pipetted.” for “are added to each well.”, “μL” for “mL”
(§4) After the initial wash, unoccupied sites were blocked by incubation for 90 min. at room temperature with 100 μL TBP containing 3% BSA. The wells were washed four times with 100 μL TPB. […] The microplate was gently shaken with an orbital shaker at room temperature for 3-4 hours. The wells were washed three times with 100 μL with TPB containing 1% BSA and three times with water containing 0.05% Tween™ 20. To the washed plate was added 150 μL of a substrate buffer composed of citric acid (25 mM) and sodium phosphate dibasic buffer (50 mM, pH 5.0) containing 0.06% hydrogen peroxide and 0.04% o-phenylenediamine hydrochloride. After 20 min. at room temperature with shaking, the reaction was stopped with 50 μL of 2.5 N HCl.
(§5) The cross reactivities of AAMU-Ab and 1X-Ab were tested using a wide variety of caffeine metabolites and structural analogs (Table 2 below).

[17] = test system: 1X-Ab; experiment: Competitive antigen ELISA, cross-reactivity of 1X-Ab; format: binding, rabbit; conditions: competitive antigen ELISA; 0 = absence of inhibition or inhibition no higher than 40% at the highest concentration tested (5×10^−3 M)
Method: as §1, §2, §3
as §2, with “were” for “are”, “They were” for “The urine samples are”, “mL^−1” for “mL-1”, “was pipetted.” for “are added to each well.”, “μL” for “mL”
as §4, §5

[18] = test system: Caffeine-Ab; experiment: Competitive antigen ELISA, antibody specificity of caffeine-Ab; format: binding, rabbit; conditions: hypothesized ideal antibody specificity; 0 = no inhibition or no higher than 40% at 5×10^−3 M
Method: as §1
(§6) BSA, antibodies, Tween™ 20 and horse radish peroxidase are added to buffers and water just prior to use. Urine samples are usually collected four hours after drinking a cup of coffee (instant or brewed with approximately 100 mg of caffeine per cup) and stored at −20° C. as 1-mL aliquots in 1.5-mL microtubes. For the ELISA, the urine samples are diluted with isotonic sodium phosphate buffer, pH 7.5 (310 mosM) to give concentrations of caffeine, 1.7-DMX and 1,7-DMU no higher than 3×10^−6 M in the microtiter plate wells. Wells of the ELISA plate are washed with a Nunc-Immuno wash 12 washer. Sixteen milliliters of a solution of 6.6 μg ml^−1 of isolated IgG antibodies is prepared in a 100 mM sodium carbonate buffer, pH 9.6, and 150 μL of this solution is pipetted in each well of a microtiter plate using a eight channel pipet (Brinkmann Transferpette™-8 50-200 μL) and 200 μL Flex tips from Brinkmann). After coating the wells with antibodies at 4° C. for 20 hours, the wells are washed 3 times with the isotonic sodium phosphate buffer containing 0.05% Tween™ 20 (IPBT) and properly drained by inverting the plate and absorbing the liquid on to a piece of paper towel. Thirty milliliters of a solution of a IPBT solution containing 1% BSA is prepared and 150 μL of this solution is pipetted in each well using a eight channel pipet (Brinkmann Transferpet-te™-8 50-200 μL) and 200 μL yellow tips (Sarstedt yellow tips for P200 Gilson Pipetman). After 3 hours at room temperature, the wells are washed 3 times with IPBT solution and drained. Samples of 400 μL for determination of caffeine, 1,7-DMX and 1,7-DMU are prepared in 1.5-mL microtubes using Sarstedt yellow tips and a P200 Gilson Pipetman. Then, 200 μL of each sample are pipetted in duplicate in a Falcon 96-well microtest tissue culture plate according to the pattern shown in FIG. 23, using Sarstedt yellow tips and a P200 Gilson Pipetman. Using an eight channel pipet (Brinkmann Transferpette™-8 50-200 μL) and changing the tips of the eight channel pipet (200 μL Flex tips from Brinkmann) at each row, 150 μL of samples are transferred in the corresponding wells of a 96-well ELISA microtiter plate coated with antibodies. After the addition of the samples, the microtiter plates are covered and left standing at room temperature for 2 h. While the plate is left standing the substrate buffer without the hydrogen peroxide and o-phenylenediamine hydrochloride is prepared (25 mM citric acid and 50 mM sodium phosphate dibasic buffer, pH 5.0). The microtiter plate is washed 3 times with the IPBT solution and 3 times with a 0.05% Tween 20 solution and drained. Then, 50 […] of hydrogen peroxide and 40 mg of o-phenylenediamine are added to the substrate buffer. One hundred fifty microliters (150 μL) of the substrate buffer solution is then added to each well using a eight channel pipet (Brinkmann Transferpette™-8 50-200 μL) and 200 μL Flex tips (Brinkmann). The microtiter plate is covered and shaken for 25-30 min at room temperature and the enzymatic reaction is stopped by adding 50 μL/well of a 2.5 N HCl solution using an eight channel pipet (Brinkmann Transferpette™-8 50-200 μL) and 200 μL Flex tips (Brinkmann).

[19] = test system: 1,7-DMX-Ab; experiment: Competitive antigen ELISA, antibody specificity of 1,7-DMX-Ab; format: binding, rabbit; conditions: hypothesized ideal antibody specificity; 0 = no inhibition or no higher than 40% at 5×10^−3 M
Method: as §1, §6

[20] = test system: 1,7-DMU-Ab; experiment: Competitive antigen ELISA, antibody specificity of 1,7-DMU-Ab; format: binding, rabbit; conditions: hypothesized ideal antibody specificity; 0 = no inhibition or no higher than 40% at 5×10^−3 M
Method: as §1, §6

## Nc1ccc(S(=O)(=O)c2ccc(N)cc2)cc1 [dapsone]
[1]; fast acetylators
  adverse reactions: 17%
[1]; slow acetylators
  adverse reactions: 46%

## CN(C)CCN1C(=O)c2cccc3cc(N)cc(c23)C1=O [amonafide]
[2]
  stability in dextrose-containing solutions: very unstable
[2]; reconstituted in normal saline, over 14 days at room temperature or under refrigeration
  decomposition of reconstituted solution: no decomposition
[3]
  activity against L1210 leukemia: significant activity
[4]
  activity against p388 leukemia: significant activity
[5]
  activity against B16 melanoma: significant activity
[6]
  activity against M5076 sarcoma: significant activity
[7]
  preclinical toxicity: reversible hematopoietic, gastrointestinal, renal and hepatic toxicity
[8]
  neurotoxicity: signs indicative of neurotoxicity
[9]; bolus dose, OSU study (Leiby et al.)
  maximum tolerated dose (MTD): 1125 mg/m^2
[9]; daily times five every 21 days, MDA (Legha et al.)
  maximum tolerated dose (MTD): 400 mg/m^2
[9]; daily times five every 21 days, OSU (Leiby et al.)
  maximum tolerated dose (MTD): 250 mg/m^2
[9]; single bolus and daily times five schedules
  dose-limiting toxicity: myelosuppression
[9]; single bolus, UTSA (Saez et al.)
  maximum tolerated dose (MTD): 800 mg/m^2
[10]
  binding to body tissues: highly bound to body tissues
  volume of distribution: large
[11]
  area under the plasma concentration-time curve, fast vs. slow acetylators: significantly greater in fast acetylators
  toxicity (myelosuppression), fast vs. slow acetylators: fast acetylators had greater toxicity than slow acetylators
[12]
  substrate of CYP1A2: substrate for CYP1A2
[13]; human, in vivo
  antitumor activity in non-small cell lung cancer, prostate cancer and breast cancer: antitumor activity
  most common dose-limiting side effect: granulocytopenia
[13]; previous clinical studies
  neutropenia, day of nadir counts: 12 to 15 days
  neutropenia, day of recovery: ~21 days

## C[N+](C)([O-])CCN1C(=O)c2cccc3cc(N)cc(c23)C1=O [N-oxide-amonafide]
[14]
  potency relative to the parent drug amonafide: essentially inactive

## CC(=O)Nc1cc2c3c(cccc3c1)C(=O)N(CCN(C)C)C2=O [N-acetyl-amonafide]
[14]
  potency relative to the parent drug amonafide: approximately equipotent to the parent drug
[12]
  effect on amonafide oxidation (CYP1A2): inhibition of amonafide oxidation

## COc1ccc2c(c1)[C@]13CCCC[C@@H]1[C@H](C2)N(C)CC3 [Dextromethorphan]
[15]; extensive metabolizers (EMs), p<0.05 vs PMs
  mean performance +/−SE: 95+/−0.5%
[15]; poor metabolizers (PMs), p<0.05 vs EMs
  mean performance +/−SE: 86+/−6%

## O=c1[nH]c(=O)c2[nH]c(=O)[nH]c2[nH]1 [Uric acid]
[16]
  % Cross-Reaction AAMU-Ab: 0%
[17]
  % Cross-Reaction 1X-Ab: 0%
[18]
  % Cross-reaction Caffeine-Ab: 0%
[19]
  % Cross-reaction 1,7-DMX-Ab: 0%
[20]
  % Cross-reaction 1,7-DMU-Ab: 0%

## Cn1c(=O)[nH]c(=O)c2[nH]cnc21 [3-Methyl Xanthine]
[16]
  % Cross-Reaction AAMU-Ab: 0%
[17]
  % Cross-Reaction 1X-Ab: 0%
[18]
  % Cross-reaction Caffeine-Ab: 0%
[19]
  % Cross-reaction 1,7-DMX-Ab: 0%
[20]
  % Cross-reaction 1,7-DMU-Ab: 0%
